The NIST ThermoML archive (doi:10.1021/acs.jced.7b00106)
Numbers after ± are expanded uncertainties.

Conditions: Hot wire method

Q: For `FC(F)(F)/C=C/Cl` [(E)-1-chloro-3,3,3-trifluoroprop-1-ene], which thermal conductivity (402.34 K, 675 kPa, Fluid (supercritical or subcritical phases)) is on record?
A: 0.01919 ± 0.0011 W/m/K

Q: What about the thermal conductivity (402.35 K, 18638 kPa, Liquid) of the same compound?
A: 0.06815 ± 0.00078 W/m/K

Q: And the thermal conductivity (402.35 K, 18644 kPa, Liquid)?
A: 0.06814 ± 0.00084 W/m/K

Q: And the thermal conductivity (402.36 K, 4694 kPa, Liquid)?
A: 0.05768 ± 0.00067 W/m/K

Q: What about the thermal conductivity (402.36 K, 4699 kPa, Liquid) of the same compound?
A: 0.05769 ± 0.00069 W/m/K

Q: What about the thermal conductivity (402.37 K, 9102 kPa, Liquid) of the same compound?
A: 0.06154 ± 0.0014 W/m/K

Q: And the thermal conductivity (402.37 K, 9105 kPa, Liquid)?
A: 0.06157 ± 0.0017 W/m/K

Q: What about the thermal conductivity (402.37 K, 33596 kPa, Liquid) of the same compound?
A: 0.07616 ± 0.0024 W/m/K

Q: What about the thermal conductivity (402.38 K, 1202 kPa, Fluid (supercritical or subcritical phases)) of the same compound?
A: 0.01949 ± 0.002 W/m/K

Q: What about the thermal conductivity (402.38 K, 1203 kPa, Fluid (supercritical or subcritical phases)) of the same compound?
A: 0.0195 ± 0.002 W/m/K

Q: And the thermal conductivity (402.38 K, 1623 kPa, Fluid (supercritical or subcritical phases))?
A: 0.02057 ± 0.0047 W/m/K

Q: And the thermal conductivity (402.38 K, 1624 kPa, Fluid (supercritical or subcritical phases))?
A: 0.02063 ± 0.0063 W/m/K

Q: And the thermal conductivity (402.38 K, 33572 kPa, Liquid)?
A: 0.0761 ± 0.0045 W/m/K

Q: What about the thermal conductivity (402.41 K, 3571 kPa, Liquid) of the same compound?
A: 0.05649 ± 0.00075 W/m/K

Q: What about the thermal conductivity (402.41 K, 3575 kPa, Liquid) of the same compound?
A: 0.05649 ± 0.00073 W/m/K

Q: And the thermal conductivity (402.42 K, 1105 kPa, Fluid (supercritical or subcritical phases))?
A: 0.01939 ± 0.0019 W/m/K

Q: And the thermal conductivity (402.43 K, 1105 kPa, Fluid (supercritical or subcritical phases))?
A: 0.01943 ± 0.0019 W/m/K

Q: What about the thermal conductivity (402.43 K, 7089 kPa, Liquid) of the same compound?
A: 0.05988 ± 0.00071 W/m/K

Q: And the thermal conductivity (402.44 K, 2633 kPa, Liquid)?
A: 0.05536 ± 0.00081 W/m/K

Q: What about the thermal conductivity (402.44 K, 2641 kPa, Liquid) of the same compound?
A: 0.05542 ± 0.00063 W/m/K

Q: What about the thermal conductivity (402.44 K, 7097 kPa, Liquid) of the same compound?
A: 0.05991 ± 0.0014 W/m/K

Q: What about the thermal conductivity (402.44 K, 15789 kPa, Liquid) of the same compound?
A: 0.06632 ± 0.0013 W/m/K

Q: What about the thermal conductivity (402.44 K, 15790 kPa, Liquid) of the same compound?
A: 0.06635 ± 0.001 W/m/K

Q: What about the thermal conductivity (402.44 K, 24987 kPa, Liquid) of the same compound?
A: 0.07171 ± 0.002 W/m/K

Q: And the thermal conductivity (402.44 K, 24992 kPa, Liquid)?
A: 0.07169 ± 0.0019 W/m/K

Q: And the thermal conductivity (402.46 K, 1000 kPa, Fluid (supercritical or subcritical phases))?
A: 0.01927 ± 0.0022 W/m/K

Q: What about the thermal conductivity (402.47 K, 1001 kPa, Fluid (supercritical or subcritical phases)) of the same compound?
A: 0.01932 ± 0.0022 W/m/K

Q: What about the thermal conductivity (402.47 K, 1515 kPa, Fluid (supercritical or subcritical phases)) of the same compound?
A: 0.02021 ± 0.0025 W/m/K

Q: And the thermal conductivity (402.47 K, 1844 kPa, Liquid)?
A: 0.0544 ± 0.0013 W/m/K

Q: And the thermal conductivity (402.47 K, 1854 kPa, Liquid)?
A: 0.05447 ± 0.0009 W/m/K

Q: And the thermal conductivity (402.48 K, 1515 kPa, Fluid (supercritical or subcritical phases))?
A: 0.02026 ± 0.004 W/m/K

Q: And the thermal conductivity (402.5 K, 848 kPa, Fluid (supercritical or subcritical phases))?
A: 0.01923 ± 0.0013 W/m/K

Q: And the thermal conductivity (402.5 K, 13367 kPa, Liquid)?
A: 0.06472 ± 0.0013 W/m/K

Q: And the thermal conductivity (402.5 K, 13371 kPa, Liquid)?
A: 0.0647 ± 0.0013 W/m/K

Q: And the thermal conductivity (402.51 K, 846 kPa, Fluid (supercritical or subcritical phases))?
A: 0.01926 ± 0.0021 W/m/K

Q: And the thermal conductivity (402.52 K, 1406 kPa, Fluid (supercritical or subcritical phases))?
A: 0.01993 ± 0.003 W/m/K

Q: What about the thermal conductivity (402.52 K, 1407 kPa, Fluid (supercritical or subcritical phases)) of the same compound?
A: 0.01994 ± 0.0031 W/m/K

Q: What about the thermal conductivity (402.53 K, 21658 kPa, Liquid) of the same compound?
A: 0.06987 ± 0.00078 W/m/K

Q: What about the thermal conductivity (402.54 K, 21643 kPa, Liquid) of the same compound?
A: 0.06986 ± 0.00079 W/m/K

Q: What about the thermal conductivity (402.56 K, 28722 kPa, Liquid) of the same compound?
A: 0.07362 ± 0.0014 W/m/K

Q: And the thermal conductivity (402.57 K, 5983 kPa, Liquid)?
A: 0.05888 ± 0.0011 W/m/K

Q: What about the thermal conductivity (402.57 K, 5985 kPa, Liquid) of the same compound?
A: 0.05888 ± 0.00088 W/m/K

Q: What about the thermal conductivity (402.57 K, 11101 kPa, Liquid) of the same compound?
A: 0.06313 ± 0.00071 W/m/K

Q: And the thermal conductivity (402.57 K, 28741 kPa, Liquid)?
A: 0.07367 ± 0.0011 W/m/K

Q: What about the thermal conductivity (402.58 K, 1306 kPa, Fluid (supercritical or subcritical phases)) of the same compound?
A: 0.01976 ± 0.0043 W/m/K

Q: What about the thermal conductivity (402.58 K, 1307 kPa, Fluid (supercritical or subcritical phases)) of the same compound?
A: 0.01973 ± 0.004 W/m/K

Q: What about the thermal conductivity (402.58 K, 11088 kPa, Liquid) of the same compound?
A: 0.06313 ± 0.00077 W/m/K

Q: And the thermal conductivity (402.6 K, 18623 kPa, Liquid)?
A: 0.06809 ± 0.0017 W/m/K

Q: And the thermal conductivity (402.61 K, 676 kPa, Fluid (supercritical or subcritical phases))?
A: 0.01925 ± 0.0019 W/m/K

Q: What about the thermal conductivity (402.61 K, 4688 kPa, Liquid) of the same compound?
A: 0.05758 ± 0.00095 W/m/K

Q: What about the thermal conductivity (402.61 K, 18624 kPa, Liquid) of the same compound?
A: 0.06809 ± 0.0017 W/m/K

Q: What about the thermal conductivity (402.61 K, 33585 kPa, Liquid) of the same compound?
A: 0.07607 ± 0.0019 W/m/K

Q: What about the thermal conductivity (402.62 K, 4693 kPa, Liquid) of the same compound?
A: 0.05763 ± 0.00095 W/m/K

Q: What about the thermal conductivity (402.62 K, 33568 kPa, Liquid) of the same compound?
A: 0.07592 ± 0.0013 W/m/K

Q: And the thermal conductivity (402.63 K, 1203 kPa, Fluid (supercritical or subcritical phases))?
A: 0.01956 ± 0.0032 W/m/K

Q: What about the thermal conductivity (402.63 K, 9088 kPa, Liquid) of the same compound?
A: 0.06152 ± 0.0012 W/m/K

Q: And the thermal conductivity (402.63 K, 9104 kPa, Liquid)?
A: 0.06148 ± 0.0012 W/m/K

Q: What about the thermal conductivity (402.65 K, 1203 kPa, Fluid (supercritical or subcritical phases)) of the same compound?
A: 0.01959 ± 0.0033 W/m/K

Q: What about the thermal conductivity (402.66 K, 3574 kPa, Liquid) of the same compound?
A: 0.05645 ± 0.002 W/m/K

Q: And the thermal conductivity (402.66 K, 3575 kPa, Liquid)?
A: 0.05645 ± 0.002 W/m/K

Q: What about the thermal conductivity (402.69 K, 1104 kPa, Fluid (supercritical or subcritical phases)) of the same compound?
A: 0.01945 ± 0.0028 W/m/K

Q: What about the thermal conductivity (402.69 K, 1106 kPa, Fluid (supercritical or subcritical phases)) of the same compound?
A: 0.01948 ± 0.003 W/m/K

Q: And the thermal conductivity (402.69 K, 7089 kPa, Liquid)?
A: 0.05985 ± 0.00084 W/m/K

Q: What about the thermal conductivity (402.69 K, 15783 kPa, Liquid) of the same compound?
A: 0.06633 ± 0.00075 W/m/K

Q: And the thermal conductivity (402.69 K, 15792 kPa, Liquid)?
A: 0.06633 ± 0.00091 W/m/K

Q: What about the thermal conductivity (402.69 K, 24993 kPa, Liquid) of the same compound?
A: 0.07169 ± 0.00081 W/m/K

Q: What about the thermal conductivity (402.7 K, 2638 kPa, Liquid) of the same compound?
A: 0.0554 ± 0.00063 W/m/K

Q: What about the thermal conductivity (402.7 K, 7091 kPa, Liquid) of the same compound?
A: 0.0599 ± 0.001 W/m/K

Q: What about the thermal conductivity (402.7 K, 25001 kPa, Liquid) of the same compound?
A: 0.07172 ± 0.0011 W/m/K

Q: And the thermal conductivity (402.71 K, 2639 kPa, Liquid)?
A: 0.05542 ± 0.0015 W/m/K

Q: And the thermal conductivity (402.74 K, 1850 kPa, Liquid)?
A: 0.05446 ± 0.0018 W/m/K

Q: And the thermal conductivity (402.75 K, 1000 kPa, Fluid (supercritical or subcritical phases))?
A: 0.01939 ± 0.0038 W/m/K
